These results are taken from patent US20210386828A1, “METHODS FOR ENHANCING CANCER IMMUNOTHERAPY” (The Regents of the University of California, priority 2018, published 2021).

The subject of series [1] is Myc-CaP cells. In words: ATAC-seq of chromatin accessibility. The series is classed as cell-based, mouse. The source says:
FIGS. 4A-4D are pictorial and graphical diagrams showing low dose Oxali alters chromatin accessibility of MHC-I related genes. […] The Venn diagram compares gene expression between untreated and differently treated cells (left). The heat map depicts differentially expressed genes involved in the indicated pathways (right). […] The Venn diagram presents the number of binding site changes and overlaps after each treatment (left). FIGS. 4C-4D show detailed ATAC seq analyses of the Nfkb1 gene (FIG. 4C) and a mouse Chr17 gene cluster containing Psmb8, Psmb9, Tap1 and Tap2 (FIG. 4D). Changes in transcription factor (TF) binding site accessibility are compared to RNA seq results. The affected TF binding sites are depicted below each panel.
FIGS. 12A-12C are pictorial and graphical diagrams showing that low dose Oxali enhances chromatin accessibility of MHC-I related genes.
To better understand the transcriptional mechanisms underlying the response to Oxali, RNA-seq and ATAC-seq analyses were conducted on Myc-CaP cells that were incubated with either 2 μM Oxali, 1 ng/mL IFNγ, or a combination of the two. By coupling ATAC-seq, a method for assessing transcription factor binding site accessibility (Buenrostro et al., 2015), with RNA-seq, transcription factor loading can be correlated with actual transcriptional changes.
Of note, the NF-κB pathway, represented by the Nfkb1 gene, was stimulated by Oxali but not IFNγ. […] To examine activation of the antigen processing and presentation pathway, a gene cluster on mouse chromosome 17 harboring Psmb9, Tap1, Psmb8, and Tap2 was analyzed. […] However, IFNγ further enhanced transcription factor accessibility in Oxali-treated cells (FIG. 4D), an effect that was consistent with the transcriptomic analysis (FIG. 4A). […] Similarly, the Erap1 locus, which is induced by both Oxali and IFNγ, was made more accessible by Oxali relative to IFNγ treatment (FIG. 12C). […] The addition of IFNγ expanded this response to include E2F6, JUNB, HIF-lb, KLF3, and DMRT6 binding sites. Of note, the chromosome 17 MHC-I region opened by Oxali contained recognition sites for BORIS and CTCF, two general transcription factors responsible for chromatin opening (Li et al., 2012).

The test system of series [2] is PC3, WM793, MIA PaCa-2, NSCLC and melanoma cell lines.
Description: The stained cells were examined by indirect immunofluorescence. […] Surface HLA-ABC expression was determined by flow cytometry.
The subject of series [3] is Myc-CaP cells. Put plainly: Surface MHC (H-2Kq) expression by flow cytometry. The series is classed as cell-based, mouse. The conditions noted are these: agent as named. An excerpt:
(§1) Each dot represents an experiment and horizontal lines denote the median.
On the technique in general: In flow cytometry, cells or beads pass a laser one at a time.

Series [4] concerns Ifngr2, Tap1 and Psmb8 promoters. In words: ChIP analysis of promoters.
For a further series, the system named is p300/CBP. Put plainly: p300 immunoblot and imaging. The series is classed as cell-based, mouse. The conditions noted are these: Myc-CaP cells. (In general: A western blot detects proteins with antibodies after separation by electrophoresis.)
Another series deals with LMP7 (PSMB8). In words: Lysate LMP7 (PSMB8) immunoproteasome activity with specific fluorogenic peptide substrate. The series is classed as cell-based, mouse. The conditions noted are these: low-dose.
Series [5] relates to Myc-CaP cells. Put plainly: Stress, DNA damage and type I IFN responses (IB, qRT-PCR). Background: Quantitative PCR measures a nucleic acid by following its amplification.
Excerpt: CRISPR-Cas9 was used to ablate cyclic GMP-AMP synthase (cGAS, encoded by Mb21d1) and Ifnar2 (FIG. 11K).
Series [6] relates to Myc-CaP cells. Put plainly: qRT-PCR of MHC-I component mRNAs in Myc-CaP cells. The series is classed as cell-based, mouse.
Excerpt: as §1

The subject of series [7] is Myc-CaP and TRAMP-C2 cells. In words: RNA-seq of mouse PCa cells incubated with platinoids. It is filed as cell-based.
Description: FIGS. 1E-1G show total RNA from Myc-CaP cells incubated with indicated agents for 24 hr was subjected to RNA-seq. Top 20 hallmark gene sets were sorted by normalized enrichment score (NES). Immune-related gene sets are in blue (IFNγ signaling in light blue).
The top 20 hallmark gene sets sorted by normalized enrichment score (NES) are shown to depict the Oxali- and Cis-induced responses determined by GSEA analysis. Immune-related gene sets are colored blue (IFNγ signaling in light blue). […] Immune-related gene sets are in blue (IFNγ signaling in light blue).
To investigate how low-dose Oxali affects the PCa transcriptome, RNA sequencing (RNA-seq) was conducted on mouse PCa cells (Myc-CaP and TRAMP-C2) incubated with 2 μM of either Oxali or Cisplatin (Cis), a platinoid that, unlike Oxali, minimally enhances the response to PD-L1 blockade or ISP ablation (Pfirschke et al., 2016; Shalapour et al., 2015).
Another series deals with s.c. Myc-CaP tumors. In words: qRT-PCR of total tumor RNA from treated mice. The series is classed as in vivo, mouse. The note with it: low-dose. As for the experimental part: FIGS. 7A-7G are pictorial and graphical diagrams showing that IFNγR2 induction is needed for the Oxali-potentiated response to anti-PDL1 therapy. […] After four treatment cycles, during which tumor size was measured, the mice were euthanized and analyzed. Significance was determined by Mann-Whitney and t-tests. Transient Cas9 expression was used to avoid any immune response to Cas9-molecules.
The synergistic inhibition of Myc-CaP tumor growth by Oxali+anti-PD-L1 was attenuated by IFNγR2 ablation (FIGS. 7A and 14E). […] Importantly, Psmb9, Tap1, and Nlrc5 induction by Oxali+anti-PD-L1 was almost completely abolished after IFNγR2 ablation in Myc-CaP cells (FIGS. 7C and 14F). Oxali+anti-PD-L1 induced MHC-I (H-2Kq and H-2Dd) surface expression by tumor cells, which was also abolished by IFNγR2 ablation (FIG. 7D). Oxali+anti-PD-L1 had no effect on surface MHC-I (H-2Kq) or PD-L1 expression by tumor-infiltrating CD11b^+ myeloid cells in vivo (FIGS. 14G and 14H). […] Thus, Oxali-induced upregulation of MHC-I genes in malignant cells is important for the final recognition and killing stage of the cancer-immunity cycle (Chen and Mellman, 2013) but has no role in ICI-induced CTL reinvigoration.

The structures appear in SMILES notation.

Description for LMP7 (PSMB8): Lysate LMP7 (PSMB8) immunoproteasome activity was measured using LMP7 (PSMB8) specific fluorogenic peptide substrate. […] Each dot is a single experiment and horizontal lines are the medians.

As to `O=C1[O][Pt]2([NH][C@@H]3CCCC[C@H]3[NH]2)[O]C1=O` [Oxali, oxaliplatin], the “transcription factor accessibility of chromosome 17 cluster Psmb9, Tap1, Psmb8, Tap2” value in the series with Myc-CaP cells [1] is given as “increased transcription factor accessibility”. Besides, in the series on Myc-CaP cells [1] (2 μM Oxali, 1 ng/mL IFNγ), the “accessibility of transcription factor binding sites at the Nfkb1 locus” value is listed as “increased accessibility”. Besides, in [2] (MIA PaCa-2 cells), the HLA-ABC surface expression entry was “induced HLA-ABC surface expression”. Also, the “Psmb9 and Ifngr2 induction, BRAF (V600E) versus activated NRAS melanoma cells” value in series [2] (panel of human melanoma cell lines) is listed as “much more responsive”. The “surface expression of H-2Kq” value with Myc-CaP cells [3] is “induced surface expression of H-2Kq”. The “H3 acetylation (Lysine 14 and 27) of Psmb8 promotor region” value in series [4] is “increased H3 acetylation”. In the series on p300/CBP, the “nuclear amount of p300 and acetylated p300/CBP” value was “enhanced the nuclear expression and acetylation of p300/CBP”. Besides, the “immunoproteasome activity, hydrolysis of LMP7 (PSMB8)-specific substrate” value with LMP7 (PSMB8) is recorded as “stimulated”. Also, in the series on Myc-CaP cells [5], the “eIF2α phosphorylation and CHOP expression” value is “induced”; the “γH2AX, marker of DNA damage” value was “γH2AX induction”. Also, the “Ifna, Ifnb and IL1b expression” value in the series with Myc-CaP cells [5] (48 hr) is on record as “increased”. In addition, the “induction of Nlrc5, Psmb9, Tap1, Ifngr2, Tapasin, and Erap1 mRNAs” value in the series on Myc-CaP cells [6] (2 μM (Oxali and Cis) or 4 μM (Carbo), among the three platinoids) is “most efficient induction”. In addition, the Ifngr2 gene expression entry in the series on Myc-CaP cells [6] (Myc-CaP cells) is recorded as “induced”. The “effect of exogenous IFNγ on induction of MHC-I antigen presentation and processing genes by the platinoid” value in the series on Myc-CaP cells [6] (plus IFNγ) is reported as “strongly potentiated by exogenous IFNγ”. In series [7] (2 μM, Myc-CaP), the “induction of gene set responsive to NF-κB-dependent TNF signaling” value is given as “strongly induced”. Also, the “induction of IFNγ responsive gene set” value in series [7] (2 μM, compared with Cis) is listed as “considerably stronger induction”. For the same compound, the “induction of genes of the MHC-I antigen processing and presentation machinery” value in [7] (low-dose, Myc-CaP) is reported as “strongly induced”. Further, in the series on s.c. Myc-CaP tumors, the “expression of Ifngr2, Psmb9, Tap1, and Nlrc5 mRNAs in tumors” value was “enhanced expression”.
